# Literature values, collected in US8329227B2, “Compositions for improving mental performance” (Factor Nutrition Labs, LLC, priority 2001, dated 2012).
# What was measured:
# [1] = 200 micrograms in four divided doses, fifty patients; placebo thirty-six percent
# [2] = healthy volunteers aged 25-40
# [3] = high or low dose versus placebo, 203 patients
# [4] = PS supplementation
molecule,measurement,setting,value
"C/C=C1\[C@H]2C=C(C)C[C@]1(N)c1ccc(=O)[nH]c1C2 [huperzine A, Huperzine A]","people with improvements in memory, cognitive function and behavior",[1],Fifty-eight
CCOC(=O)C1=C[C@]2(CC)CCCN3CCc4c(n1c1ccccc41)[C@@H]32 [vinpocetine],memory (Steinberg Memory Test),[2],significant memory improvement
same,cognitive performance and overall quality of life,[3],Significantly greater improvements
same,patients with reduced frequency or complete elimination of epileptic seizures,epileptic patients,twenty of the thirty-one
same,tolerability in clinical studies,"human, in vivo",well tolerated
phosphatidyl serine [PS],improvement in learning ability and memory tasks,[4],15%
